Data from PubChem BioAssay (NCI).
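Values below derive from 48-hour exposures of cells grown in 96-well plates, with endpoints linearly interpolated between the two concentrations bracketing the appropriate inhibition level. Abbreviation: GI50, concentration required for 50% inhibition of growth. TGI marks complete inhibition of growth.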

Legend:
Assay in all cases: NCI-60 cell line screen, 48 h
[1] = test system: HS 578T breast
[2] = test system: SF-539 CNS
[3] = test system: SF-268 CNS
[4] = test system: NCI/ADR-RES ovarian
[5] = test system: SN12C renal
[6] = test system: KM12 colon
[7] = test system: TK-10 renal
[8] = test system: SR leukemia
[9] = test system: K-562 leukemia
[10] = test system: OVCAR-4 ovarian

| SMILES | TGI [1] [µM] | TGI [2] [µM] | TGI [3] [µM] | TGI [4] [µM] | TGI [5] [µM] | TGI [6] [µM] | TGI [7] [µM] | TGI [8] [µM] | TGI [9] [µM] | TGI [10] [µM] | GI50 [10] [µM] | GI50 [2] [µM] | GI50 [3] [µM] | GI50 [4] [µM] | GI50 [5] [µM] | GI50 [6] [µM] | GI50 [7] [µM] | GI50 [9] [µM] |
| --- | --- | --- | --- | --- | --- | --- | --- | --- | --- | --- | --- | --- | --- | --- | --- | --- | --- | --- |
| O=[N+]([O-])C(C=C(n1nnc2ccccc21)n1nnc2ccccc21)=C(n1nnc2ccccc21)n1nnc2ccccc21 | > 100 | > 100 | > 100 | > 100 | > 100 | > 100 | > 100 | 66.6 | > 100 | – | – | – | – | – | – | – | – | – |
| CC(C)(C)C1=C(Br)C(OC(=O)C(F)(F)F)(C(C)(C)C)OP1(=O)c1ccccc1 (stereo unspecified) | 65.5 | > 100 | > 100 | > 100 | > 100 | > 100 | > 100 | – | > 100 | > 100 | – | – | – | – | – | – | – | – |
| C=CCNC(=S)/N=C/C(C(=O)Nc1ccccc1C)=C(\C)O | > 100 | > 100 | > 100 | > 100 | > 100 | > 100 | > 100 | – | > 100 | > 100 | – | – | – | – | – | – | – | – |
| CN1CCC2(CC1)C(=NC1CCCCC1)NC(=O)N2c1ccccc1 | > 100 | – | > 100 | > 100 | > 100 | > 100 | > 100 | > 100 | – | – | – | – | – | – | – | – | – | – |
| O=C1C=C(N2CCN(CCOCCO)CC2)C(=O)c2c(O)ccc(O)c21 | 45.3 | 25.6 | 37.1 | 10.4 | 14.8 | 26.5 | 22.7 | – | > 44.6 | 8.33 | – | – | – | – | – | – | – | – |
| COc1ccc(CNc2nc3ccccc3nc2C(=O)O)cc1 | > 100 | > 100 | > 100 | > 100 | > 100 | > 100 | > 100 | > 100 | > 100 | – | – | – | – | – | – | – | – | – |
| CCNC(=S)N/N=C(\C)c1cccc(C)n1 | > 100 | 45.1 | 17.2 | > 100 | > 100 | > 100 | > 100 | > 100 | > 100 | – | – | – | – | – | – | – | – | – |
| NN/C(=N\S(=O)(=O)c1ccc(S(=O)(=O)c2ccccc2)s1)Nc1ccc(Cl)cc1 | – | > 100 | – | > 100 | 77.8 | 49.3 | > 100 | 44 | > 100 | > 100 | – | – | – | – | – | – | – | – |
| O=C(Nc1ccc2ccccc2c1)c1cc2cc(CCl)ccc2oc1=O | 8.73 | – | 73.5 | > 100 | > 100 | > 100 | > 100 | > 100 | > 100 | > 100 | – | – | – | – | – | – | – | – |
| O=c1cc(N2CCCC2)[nH]c(=O)n1-c1ccc(Cl)cc1 | > 100 | > 100 | > 100 | > 100 | > 100 | > 100 | > 100 | – | > 100 | > 100 | – | – | – | – | – | – | – | – |
| CC(C)C(NC(=O)C(Cc1ccccc1)NC(=O)[C@H]1CCC[C@H]1NC(=O)C(Cc1ccc(OC(C)(C)C)cc1)NC(=O)OC(C)(C)C)C(N)=O (stereo partly specified) | – | 33.8 | 70 | > 100 | 35.2 | 41.8 | 72 | > 100 | 44.4 | 65.4 | – | – | – | – | – | – | – | – |
| C=C(C)[C@@H]1CC[C@]2(CO)CC[C@]3(C)[C@H](CC[C@@H]4[C@@]5(C)CC[C@H](NCO)C(C)(C)[C@@H]5CC[C@]43C)[C@@H]12 | – | 1.52 | 1.92 | 1.72 | 1.5 | 1.63 | 1.78 | – | 3.59 | 1.59 | 0.827 | 0.826 | 0.944 | 0.894 | 0.79 | 0.886 | 0.965 | 0.974 |
| CC1C2(C)OCC(C#N)(C(=N)O2)C1(C#N)C#N (stereo unspecified) | 74.4 | 57.3 | 74.3 | > 100 | 29.1 | > 100 | > 100 | – | > 100 | – | – | – | – | – | – | – | – | – |
| O=C(Nc1ccc(Cl)cc1)c1cc(S(=O)(=O)Nc2n[nH]c(=O)n2-c2ccccc2)c(S)cc1Cl | > 100 | > 100 | > 100 | > 100 | > 100 | > 100 | – | > 100 | – | > 100 | – | – | – | – | – | – | – | – |
| COc1ccc(-n2cnc3c(NC(Cc4ccccc4)C(=O)O)ncnc32)cc1 (stereo unspecified) | > 100 | – | > 100 | > 100 | > 100 | > 100 | > 100 | > 100 | > 100 | > 100 | – | – | – | – | – | – | – | – |
| COC(=O)C(NC(=O)OC(C)(C)C)P(=O)(OC)OC (stereo unspecified) | > 100 | – | > 100 | > 100 | > 100 | > 100 | > 100 | > 100 | > 100 | > 100 | – | – | – | – | – | – | – | – |
| CC(C)=NOC(=O)Nc1cccc2c1OCO2 | > 100 | > 100 | > 100 | > 100 | > 100 | > 100 | > 100 | – | – | > 100 | – | – | – | – | – | – | – | – |
| C(=C/c1nc2ccccc2o1)/c1ccc2c(c1)OCO2 | – | 34.6 | > 100 | 39.5 | > 100 | 26.1 | – | – | > 65.3 | 44.6 | – | – | – | – | – | – | – | – |
| O=C1CC(c2ccccc2)S(=O)c2ccccc2N1 (stereo unspecified) | > 100 | – | > 100 | > 100 | > 100 | > 100 | > 100 | > 100 | > 100 | > 100 | – | – | – | – | – | – | – | – |
| COC(=O)c1ccc(NCC2=C(Br)C(=O)C=CC2=O)cc1Cl | > 100 | 35.7 | 35.1 | 75.4 | 30.1 | > 100 | 30.9 | – | > 100 | 62.3 | – | – | – | – | – | – | – | – |
| CCCCCCCCCCCCOP(=O)(O)OP(=O)(O)OCC1OC(n2cc(C)c(=O)[nH]c2=O)CC1O (stereo unspecified) | > 100 | > 100 | > 100 | > 100 | > 100 | > 100 | > 100 | – | > 100 | > 100 | – | – | – | – | – | – | – | – |
| CC(=O)OCC1OC(n2c(-c3ccccc3)c(N=Nc3ccc(C)cc3)c(C)c(C#N)c2=S)C(OC(C)=O)C(OC(C)=O)C1OC(C)=O (stereo unspecified) | – | – | 76.6 | 39.9 | 28.9 | > 100 | 47.6 | > 100 | > 100 | 25.1 | – | – | – | – | – | – | – | – |
